In patent US20160101072A1, “Therapeutic uses of enzyme inhibitors” (Proximagen Limited, priority 2013, published 2016):
Marks after values point to notes of the source that are not given here.

Assays:
CD11b+ myeloid cells = assay: Cell sorting: recruitment of CD11b+ myeloid cells into muscles of mdx mice; assay type: in vivo, mouse; conditions: mdx mice muscle; for % change compared to vehicle (CD11b+ myeloid cells) / % of viable cells (CD11b+ myeloid cells): 4 weeks
Description: (§1) In this example, labelled antibodies were used to assess infiltration of inflammatory myeloid and lymphoid cells into muscles of mdx mice following treatment of the mice with different doses of the glucocorticoid prednisolone, and the VAP-1 inhibitors carbidopa and benserazide. CD11b is a transmembrane glycoprotein which is expressed on the surface of granulocytes (including neutrophils and eosinophils), monocytes, NK cells, dendritic cells, tissue macrophages and subsets of T and B cells. Labelled antibody to CD11b was used to assess infiltration of inflammatory myeloid cells into muscles of mdx mice. Labelled antibody to Ly6C was used to assess infiltration of pro- and anti-inflammatory monocytes into muscles of mdx mice. Labelled antibody to CD4 and CD8a antigen was used to assess infiltration of Th cells (CD4^+CD8^-) and double negative (CD4^-CD8^-) T cells into muscles of mdx mice. A total of a ninety C57BU10ScSn-Dmdmdx/J male mice, 3 weeks of age (+/-3days), were transferred to the in vivo research laboratory in Bar Harbor, Me. Additional ten […] male mice 3 weeks of age (+/-3 days) were also transferred and served as a wild-type control group. The mice were ear notched for identification and housed in ventilated polysulfone cages with HEPA filtered air at a density of 3-4 mice per cage. The animal room was lit entirely with artificial fluorescent lighting on controlled 12 hour light/dark cycle (6 a.m. to 6 p.m. light). […] The animal room was set for 15 air exchanges per hour. Filtered tap water acidified to a pH of 2.8 to 3.2 was provided ad libitum. […] Prior to study initiation, mice were acclimated for 3 days. Mice were tested for grip strength and in the open field at ages 25 and 26 days, and drug regimen was initiated at age 27 days. Mice were monitored twice weekly for clinical observations and body weights. […] 24 hours after the second open field tests, blood was collected by retro-orbital bleeding, and mice were humanely euthanized by CO2 asphyxiation. One triceps surae was collected fresh and processed for immune cell sorting, one tibialis anterior was preserved in RNALater for RNA extraction, one whole hind limb and the diaphragm were fixed in 2% paraformaldehyde overnight at 4° C. for paraffin embedding and histology stains. For immune cell sorting, muscle samples were enzymatically and mechanically dissociated following manufacturer instructions (Skeletal Muscle Dissociation KitCatalog no. 130-098-305, Miltenyi Biotec). Cells were stained with the following antibodies: [table] Stained cells were analyzed on a BD LSR II cytometer and counts of different populations were expressed in percentage of the number of live cells counted.

[1] = system: CD11b+Ly6Chigh profibrotic myeloid cells (Ly6C+ monocytes); assay: Cell sorting: recruitment of CD11b+Ly6Chigh profibrotic myeloid cells into muscles of mdx mice; assay type: in vivo, mouse; conditions: mdx mice muscle; for % change compared to vehicle (CD11b+Ly6Chigh profibrotic myeloid cells) / % of viable cells (CD11b+Ly6Chigh profibrotic myeloid cells): 4 weeks
Description: as §1

[2] = system: CD11b+Ly6Clow anti-fibrotic myeloid cells (Ly6C- monocytes); assay: Cell sorting: recruitment of CD11b+Ly6Clow anti-fibrotic myeloid cells into muscles of mdx mice; assay type: in vivo, mouse; conditions: mdx mice muscle; for % change compared to vehicle (CD11b+Ly6Clow anti-fibrotic myeloid cells) / % of viable cells (CD11b+Ly6Clow anti-fibrotic myeloid cells): 4 weeks
Description: as §1

[3] = system: CD11b+Ly6Chigh profibrotic : CD11b+Ly6Clow anti-fibrotic myeloid cells; assay: Ratio of profibrotic to anti-fibrotic myeloid cells in mdx mouse muscle; assay type: in vivo; conditions: both doses
Description: In this example, labelled antibodies were used to assess infiltration of inflammatory myeloid and lymphoid cells into muscles of mdx mice following treatment of the mice with different doses of the glucocorticoid prednisolone, and the VAP-1 inhibitors carbidopa and benserazide. […] Labelled antibody to CD11b was used to assess infiltration of inflammatory myeloid cells into muscles of mdx mice. Labelled antibody to Ly6C was used to assess infiltration of pro- and anti-inflammatory monocytes into muscles of mdx mice. Labelled antibody to CD4 and CD8a antigen was used to assess infiltration of Th cells (CD4^+CD8^−) and double negative (CD4^−CD8^−) T cells into muscles of mdx mice.
A total of a ninety C57BU10ScSn-Dmdmdx/J male mice, 3 weeks of age (+/−3days), were transferred to the in vivo research laboratory in Bar Harbor, Me. Additional ten C57BU10ScSnJ male mice 3 weeks of age (+/−3 days) were also transferred and served as a wild-type control group. The mice were ear notched for identification and housed in ventilated polysulfone cages with HEPA filtered air at a density of 3-4 mice per cage. […]

[4] = system: lymphoid CD4+CD8- T cells; assay: Cell sorting: recruitment of lymphoid CD4+CD8- T cells into muscles of mdx mice; assay type: in vivo, mouse; conditions: mdx mice muscle
Description: as §1

[5] = system: lymphoid CD4-CD8- (double negative, DN) T cells; assay: Cell sorting: recruitment of lymphoid CD4-CD8- (double negative, DN) T cells into muscles of mdx mice; assay type: in vivo, mouse; conditions: mdx mice muscle
Description: as §1

TNF mRNA = assay: mRNA quantification (RT PCR) of TNF in muscles of mdx mice; assay type: in vivo, mouse; conditions: for TNF mRNA level: mdx mice muscle, GAPDH as normalizer; for effect on the level of TNF mRNA: treatment alone, mdx mouse muscle
Description: (§2) A total of a ninety C57BU10ScSn-Dmdmdx/J male mice, 3 weeks of age (+/-3days), were transferred to the in vivo research laboratory in Bar Harbor, Me. Additional ten […] male mice 3 weeks of age (+/-3 days) were also transferred and served as a wild-type control group. The mice were ear notched for identification and housed in ventilated polysulfone cages with HEPA filtered air at a density of 3-4 mice per cage. The animal room was lit entirely with artificial fluorescent lighting on controlled 12 hour light/dark cycle (6 a.m. to 6 p.m. light). […] The animal room was set for 15 air exchanges per hour. Filtered tap water acidified to a pH of 2.8 to 3.2 was provided ad libitum. […] Prior to study initiation, mice were acclimated for 3 days. Mice were tested for grip strength and in the open field at ages 25 and 26 days, and drug regimen was initiated at age 27 days. Mice were monitored twice weekly for clinical observations and body weights. […] 24 hours after the second open field tests, blood was collected by retro-orbital bleeding, and mice were humanely euthanized by CO2 asphyxiation. One triceps surae was collected fresh and processed for immune cell sorting, one tibialis anterior was preserved in RNALater for RNA extraction, one whole hind limb and the diaphragm were fixed in 2% paraformaldehyde overnight at 4° C. for paraffin embedding and histology stains. Total RNAs were extracted with a modification of the Trizol method, reverse transcribed, and mRNAs of TGFβ, and the following inflammation markers were quantified by the SYBR green method with GAPDH as a normalizer: […]

Lgals3 mRNA = assay: mRNA quantification (RT PCR) of Lgals3 in muscles of mdx mice; assay type: in vivo, mouse; conditions: for Lgals3 mRNA level: mdx mice muscle, GAPDH as normalizer; for effect on the level of Lgals3 mRNA: treatment alone, mdx mouse muscle
Description: as §2

CD53 mRNA = assay: mRNA quantification (RT PCR) of CD53 in muscles of mdx mice; assay type: in vivo, mouse; conditions: for CD53 mRNA level: mdx mice muscle, GAPDH as normalizer
Description: as §2

CD48 mRNA = assay: mRNA quantification (RT PCR) of CD48 in muscles of mdx mice; assay type: in vivo, mouse; conditions: for CD48 mRNA level: mdx mice muscle, GAPDH as normalizer; for effect on the level of CD48 mRNA: treatment alone, mdx mouse muscle
Description: as §2

CD11b mRNA = assay: mRNA quantification (RT PCR) of CD11b in muscles of mdx mice; assay type: in vivo, mouse; conditions: for CD11b mRNA level: mdx mice muscle, GAPDH as normalizer
Description: as §2

TGFβ mRNA = assay: mRNA quantification (RT PCR) of pro-fibrotic growth factor TGFβ in muscles of mdx mice; assay type: in vivo, mouse; conditions: for % change compared to vehicle (TGFβ mRNA) / TGFβ mRNA: mdx mice muscle; for TGFβ mRNA: GAPDH as normalizer
Description: as §2

IL-6 mRNA = assay: mRNA quantification (RT PCR) of IL-6 in muscles of mdx mice; assay type: in vivo, mouse; conditions: mdx mice muscle
Description: as §2

Mpeg1 mRNA = assay: mRNA quantification (RT PCR) of Mpeg1 in muscles of mdx mice; assay type: in vivo, mouse; conditions: mdx mice muscle
Description: as §2

Ly6C1 mRNA = assay: mRNA quantification (RT PCR) of Ly6C1 in muscles of mdx mice; assay type: in vivo, mouse; conditions: mdx mice muscle
Description: as §2

[6] = 100 mg/kg po twice/day, 4 weeks
[7] = doses as in the table (carbidopa 100, benserazide 20 mg/kg po twice/day; prednisolone 1 mg/kg ip once/day)
[8] = mdx mouse muscle, compared to vehicle
[9] = treatment alone, mdx mouse muscle

## C[C@@](Cc1ccc(O)c(O)c1)(NN)C(=O)O [Carbidopa]
CD11b+ myeloid cells; 50 mg/kg po twice/day
  % change compared to vehicle (CD11b+ myeloid cells): −55.2%
  % of viable cells (CD11b+ myeloid cells): 16.3** %
CD11b+ myeloid cells; 100 mg/kg po twice/day
  % change compared to vehicle (CD11b+ myeloid cells): −49.2%
  % of viable cells (CD11b+ myeloid cells): 18.5** %
CD11b+ myeloid cells; both carbidopa doses (columns 5 and 6 of FIG. 4)
  reduction of myeloid cell recruitment compared with vehicle: approximately 50%
[1]; 50 mg/kg po twice/day
  % change compared to vehicle (CD11b+Ly6Chigh profibrotic myeloid cells): −86.4%
  % of viable cells (CD11b+Ly6Chigh profibrotic myeloid cells): 1.75** %
[1]; 100 mg/kg po twice/day
  % change compared to vehicle (CD11b+Ly6Chigh profibrotic myeloid cells): −82.1%
  % of viable cells (CD11b+Ly6Chigh profibrotic myeloid cells): 1.31** %
[1]; at both doses tested
  reduction of profibrotic myeloid cell recruitment compared with vehicle: over 80%
[2]; 50 mg/kg po twice/day
  % change compared to vehicle (CD11b+Ly6Clow anti-fibrotic myeloid cells): −49.3%
  % of viable cells (CD11b+Ly6Clow anti-fibrotic myeloid cells): 13.8** %
[2]; 100 mg/kg po twice/day
  % change compared to vehicle (CD11b+Ly6Clow anti-fibrotic myeloid cells): −41.2%
  % of viable cells (CD11b+Ly6Clow anti-fibrotic myeloid cells): 16** %
[2]; both carbidopa doses (columns 5, 6 of FIG. 5B)
  inhibition of recruitment of anti-fibrotic myeloid cells compared with vehicle: less than 50%
[3]
  relative levels of pro- and anti-fibrotic myeloid cells: in favour of anti-fibrotic myeloid cells
[4]; [6]
  % change compared to vehicle (lymphoid CD4+CD8- T cells): −51.4%
  % of viable cells (lymphoid CD4+CD8- T cells): 7.1** %
[4]; [7]
  reduction of recruitment of lymphoid CD4+CD8- T cells compared with vehicle: over 33.3%
[5]; [6]
  % change compared to vehicle (lymphoid CD4-CD8- DN T cells): −56.4%
  % of viable cells (lymphoid CD4-CD8- DN T cells): 14.2** %
[5]; [7]
  reduction of recruitment of lymphoid DN T cells compared with vehicle: ~50%
TNF mRNA; 50 mg/kg po twice/day
  TNF mRNA level: 0.74
TNF mRNA
  effect on the level of TNF mRNA: No significant effect
Lgals3 mRNA; 50 mg/kg po twice/day
  Lgals3 mRNA level: 0.66
Lgals3 mRNA
  effect on the level of Lgals3 mRNA: no significant effect
CD53 mRNA; 50 mg/kg po twice/day
  CD53 mRNA level: 0.46**
CD53 mRNA; [8]
  reduction of the level of CD53 mRNA: 52.6%
CD48 mRNA; 50 mg/kg po twice/day
  CD48 mRNA level: 0.86
CD48 mRNA
  effect on the level of CD48 mRNA: no significant effect
CD11b mRNA; 50 mg/kg po twice/day
  CD11b mRNA level: 0.58*
CD11b mRNA; [8]
  reduction of the level of CD11b mRNA: 42%
TGFβ mRNA; 50 mg/kg po twice/day
  % change compared to vehicle (TGFβ mRNA): −34.7%
  TGFβ mRNA: 0.79
TGFβ mRNA; treatment alone, muscle of mdx mice
  reduction of the TGFβ mRNA level (fraction in words): over a third
IL-6 mRNA
  effect on IL-6 mRNA level: No effects
Mpeg1 mRNA
  effect on Mpeg1 mRNA level: No effects
Ly6C1 mRNA
  effect on Ly6C1 mRNA level: No effects

## C[C@]12C=CC(=O)C=C1CC[C@@H]1[C@@H]2[C@@H](O)C[C@@]2(C)[C@H]1CC[C@]2(O)C(=O)CO [Prednisolone, prednisolone]
CD11b+ myeloid cells; 0.2 mg/kg ip once/day
  % change compared to vehicle (CD11b+ myeloid cells): +14.8%
  % of viable cells (CD11b+ myeloid cells): 41.8%
CD11b+ myeloid cells; 1 mg/kg ip once/day
  % change compared to vehicle (CD11b+ myeloid cells): +20.9%
  % of viable cells (CD11b+ myeloid cells): 44%
[1]; 0.2 mg/kg ip once/day
  % change compared to vehicle (CD11b+Ly6Chigh profibrotic myeloid cells): +0.6%
  % of viable cells (CD11b+Ly6Chigh profibrotic myeloid cells): 7.37%
[1]; 1 mg/kg ip once/day
  % change compared to vehicle (CD11b+Ly6Chigh profibrotic myeloid cells): −38.3%
  % of viable cells (CD11b+Ly6Chigh profibrotic myeloid cells): 4.52%
[1]; both doses
  effect on recruitment of profibrotic myeloid cells compared with vehicle: no statistically significant effect
[2]; 0.2 mg/kg ip once/day
  % change compared to vehicle (CD11b+Ly6Clow anti-fibrotic myeloid cells): +0.4%
  % of viable cells (CD11b+Ly6Clow anti-fibrotic myeloid cells): 27.3%
[2]; 1 mg/kg ip once/day
  % change compared to vehicle (CD11b+Ly6Clow anti-fibrotic myeloid cells): +0.7%
  % of viable cells (CD11b+Ly6Clow anti-fibrotic myeloid cells): 27.4%
[2]; both doses
  effect on recruitment of anti-fibrotic myeloid cells compared with vehicle: no statistically significant effect
TNF mRNA; 0.2 mg/kg ip once/day
  TNF mRNA level: 0.92
TNF mRNA
  effect on the level of TNF mRNA: No significant effect
Lgals3 mRNA; 0.2 mg/kg ip once/day
  Lgals3 mRNA level: 1.2
Lgals3 mRNA
  effect on the level of Lgals3 mRNA: no significant effect
CD53 mRNA; 0.2 mg/kg ip once/day
  CD53 mRNA level: 1.33
CD53 mRNA; [9]
  effect on the level of CD53 mRNA: not significantly affected
CD48 mRNA; 0.2 mg/kg ip once/day
  CD48 mRNA level: 1
CD48 mRNA
  effect on the level of CD48 mRNA: no significant effect
CD11b mRNA; 0.2 mg/kg ip once/day
  CD11b mRNA level: 1.42
CD11b mRNA; [9]
  effect on the level of CD11b mRNA: not significantly affected
TGFβ mRNA; 0.2 mg/kg ip once/day
  % change compared to vehicle (TGFβ mRNA): 48.8%
  TGFβ mRNA: 1.80
TGFβ mRNA; prednisolone alone, muscle of mdx mice
  effect on the level of TGFβ mRNA: increased
IL-6 mRNA
  effect on IL-6 mRNA level: No effects
Mpeg1 mRNA
  effect on Mpeg1 mRNA level: No effects
Ly6C1 mRNA
  effect on Ly6C1 mRNA level: No effects
